Laboratory results taken from patent US9765039B2, “Biaryl derivatives as bromodomain inhibitors” (Zenith Epigenetics Ltd., priority 2012, dated 2017).

How the values were obtained:
[1] = test system: Human AML MV-4-11 cells; assay: Inhibition of cell proliferation in cancer cell lines (CellTiter Aqueous One); assay type: cell-based; design: key: Active: Compounds with an IC50 value less than 30 μM were deemed to be active.; Not Active: Compounds with an IC50 value less than 30 μM were deemed to be active; details: 72 hours
Outline: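 Exponentially growing MV-4-11 cells were treated immediately with two-fold compound dilutions from 30 µM to 0.2 µM in triplicate for 72 h at 37 °C. Viability was read by MTS (CellTiter Aqueous One) absorbance at 490 nm after 3-4 h; % proliferation vs DMSO gave IC50.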

[2] = test system: c-myc; assay: Inhibition of c-myc expression in cancer cell lines (mRNA, real-time PCR); assay type: cell-based; design: key: Active: Compounds with an IC50 value less than 30 μM were deemed to be active; details: Human AML MV4-11 cells, 3 hours
Outline: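 MV4-11 cells (2.5×10^4) exposed to compound or 0.1% DMSO for 3 h at 37° C, then lysed for mRNA isolation. c-myc and cyclophilin cDNAs co-amplified by duplex RT real-time PCR. IC50 from dose-response curve.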

[3] = molecular target: T1, Brd4 bromodomain 1 (Homo sapiens, UniProt O60885); assay: Inhibition of tetra-acetylated histone H4 binding to BET bromodomains (TR-FRET); design: key: Active: Compounds with an IC50 value less than 30 μM were deemed to be active.; Not Active: Compounds with an IC50 value less than 30 μM were deemed to be active; details: first bromodomain of Brd4, tetra-acetylated histone H4 peptide
T1 construct: made in house; host or cells: E. coli BL21(DE3)
Outline: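 TR-FRET with N-terminally His-tagged bromodomains (200 nM, E. coli-expressed, Ni affinity and SEC-purified) and biotinylated tetra-acetylated histone H4 peptide (25–50 nM), detected with Eu-cryptate streptavidin and XL665 anti-His antibody. Buffer 30 mM HEPES pH 7.4, 320 mM KF, 0.08% BSA, 0.2% DMSO; 2 h RT. IC50 from decrease in 665/620 nm ratio.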

[4] = test system: hIL-6 mRNA; assay: Inhibition of hIL-6 mRNA transcription in LPS-stimulated U937 macrophages; assay type: cell-based, human; design: key: Active: Compounds with an IC50 value less than 30 μM are deemed to be active; details: U937 differentiated into macrophages, 1 h pretreatment, lipopolysaccharide 3 h
Outline: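 U937 cells differentiated 3 days with 60 ng/mL PMA, pretreated 1 h with compound, then stimulated with […] E. coli LPS for 3 h at 37° C. hIL-6 mRNA quantified by one-step real-time RT-PCR, Ct normalised to internal control and expressed as fold induction relative to control.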

[5] = test system: hApoA-1 mRNA; assay: Up-regulation of hApoA-1 mRNA transcription in Huh7 cells; assay type: cell-based, human; design: key: Active: Compounds with an EC170 value less than 30 μM are deemed to be active.; Not Active: Compounds with an EC170 value less than 30 μM are deemed to be active; details: 48 hrs treatment, ApoA-I mRNA
Description: In this example, ApoA-I mRNA in tissue culture cells was quantitated to measure the transcriptional up-regulation of ApoA-I when treated with a compound of the present disclosure.
Huh7 cells ([…] per well) were plated in a 96-well plate using 100 μL DMEM per well, (Gibco DMEM supplemented with penicillin/streptomycin and 10% FBS), 24 h before the addition of the compound of interest. After 48 hrs treatment, the spent media was removed from the Huh-7 cells and placed on ice (for immediate use) or at −80° C. (for future use) with the “LDH cytotoxicity assay Kit II” from Abcam. The cells remaining in the plate were rinsed with 100 μL PBS.
Then 85 μL of cell lysis solution was added to each well and incubated for 5-10 minutes at room temperature, to allow for complete cell lysis and detachment. mRNA was then prepared using the “mRNA Catcher PLUS plate” from Life Technologies, according to the protocol supplied. After the last wash, as much wash buffer as possible was aspirated without allowing the wells to dry. Elution Buffer (E3, 80 μL) was then added to each well. mRNA was then eluted by incubating the mRNA Catcher PLUS plate with Elution Buffer for 5 minutes at 68° C., and then 1 minute at 4° C. Catcher plates with mRNA eluted were kept on ice for use or stored at −80° C.
The eluted mRNA isolated was then used in a one-step real-time PCR reaction, using components of the Ultra Sense Kit together with Life Technologies primer-probe mixes. Real-time PCR data was analyzed, using the Ct values, to determine the fold induction of each unknown sample, relative to the control (that is, relative to the control for each independent DMSO concentration).
Compounds with an EC170 value less than 30 μM are deemed to be active.

SMILES | cell proliferation activity (IC50 < 30 μM) [1] | c-myc activity (IC50 < 30 μM) [2] | FRET activity (IC50 < 30 μM) [3] | melting point | IL-6 activity (IC50 < 30 μM) [4] | ApoA-1 Activity (EC170 < 30 μM) [5]
COc1cc(OC)c2c(=O)[nH]c(-c3ccc(OCCNC(C)C)c(-c4ccc(C(=O)N(C)C)cc4)n3)nc2c1 [Example 26, 4-(6-(5,7-Dimethoxy-4-oxo-3,4-dihydroquinazolin-2-yl)-3-(2-(isopropylamino)ethoxy)pyridin-2-yl)-N,N-dimethylbenzamide] | Active | Active | Active | 214 to 215 °C | Active | Active
COc1cc(OC)c2c(=O)[nH]c(-c3ccc(OCCN4CCCC4)c(-c4ccc(S(C)(=O)=O)cc4)n3)nc2c1.Cl [Example 29, 5,7-Dimethoxy-2-(6-(4-(methylsulfonyl)phenyl)-5-(2-(pyrrolidin-1-yl)ethoxy)pyridin-2-yl)quinazolin-4(3H)-one hydrochloride] | Active | Active | Active | 211 to 213 °C | Active | Active
COc1cc(OC)c2c(=O)[nH]c(-c3ccc(OCCO)c(-c4cccc([S+](C)[O-])c4)n3)nc2c1 (stereo not drawn) [Example 37, 2-(5-(2-Hydroxyethoxy)-6-(3-(methylsulfinyl)phenyl)pyridin-2-yl)-5,7-dimethoxyquinazolin-4(3H)-one] | Not Active | Active | Active | 272 to 273 °C | Active | Active
COc1cc(OC)c2c(=O)[nH]c(-c3ccc(OCCO)c(-c4ccc([S+](C)[O-])cc4)n3)nc2c1 (stereo not drawn) [Example 38, 2-(5-(2-Hydroxyethoxy)-6-(4-(methylsulfinyl)phenyl)pyridin-2-yl)-5,7-dimethoxyquinazolin-4(3H)-one] | Active | Active | Active | 281 to 282 °C | Active | Active
COc1cc(OC)c2c(=O)[nH]c(-c3ccc(OCCNC(C)C)c(-c4cccc([S+](C)[O-])c4)n3)nc2c1 (stereo not drawn) [Example 40, 2-(5-(2-(Isopropylamino)ethoxy)-6-(3-(methylsulfinyl)phenyl)pyridin-2-yl)-5,7-dimethoxyquinazolin-4(3H)-one] | Active | Active | Active | 156 to 157 °C | Active | Active
COc1cc(OC)c2c(=O)[nH]c(-c3ccc(OCCNC(C)C)c(-c4ccc(S(C)(=O)=O)cc4C)n3)nc2c1 [Example 45, 2-(5-(2-(Isopropylamino)ethoxy)-6-(2-methyl-4-(methylsulfonyl)phenyl)pyridin-2-yl)-5,7-dimethoxyquinazolin-4(3H)-one] | Active | Active | Active | 202 to 203 °C | Active | Active
COc1cc(OC)c2c(=O)[nH]c(-c3ccc(OCCNC(C)C)c(-c4ccc(S(C)(=O)=O)cc4C(F)(F)F)n3)nc2c1 [Example 46, 2-(5-(2-(Isopropylamino)ethoxy)-6-(4-(methylsulfonyl)-2-(trifluoromethyl)phenyl)pyridin-2-yl)-5,7-dimethoxyquinazolin-4(3H)-one] | Active | Active | Active | 199 to 201 °C | Active | Active
COc1cc(OC)c2c(=O)[nH]c(-c3cccc(-c4ccc([S+](C)[O-])cc4)n3)nc2c1 (stereo not drawn) [Example 49, 5,7-Dimethoxy-2-(6-(4-(methylsulfinyl)phenyl)pyridin-2-yl)quinazolin-4(3H)-one] | Active | Not Active | Active | 281 to 282 °C | Active | Active
COc1cc(OC)c2c(=O)[nH]c(-c3ccc(OCCN(C(=O)OC(C)(C)C)C(C)C)c(-c4ccc([S+](C)[O-])cc4)n3)nc2c1 (stereo not drawn) [Example 53, tert-Butyl (2-((6-(5,7-dimethoxy-4-oxo-3,4-dihydroquinazolin-2-yl)-2-(4-(methylsulfinyl)phenyl)pyridin-3-yl)oxy)ethyl)(isopropyl)carbamate] | Not Active | Not Active | Active | 114 to 116 °C | Not Active | Active
COc1cc(OC)c2c(=O)[nH]c(-c3ccc(OCCN4CCCC4)c(-c4ccc([S+](C)[O-])cc4)n3)nc2c1 (stereo not drawn) [Example 55, 5,7-Dimethoxy-2-(6-(4-(methylsulfinyl)phenyl)-5-(2-(pyrrolidin-1-yl)ethoxy)pyridin-2-yl)quinazolin-4(3H)-one] | Active | Not Active | Active | 103 to 105 °C | Active | Active
COc1cc(OC)c2c(=O)[nH]c(-c3ccc(OC)c(-c4ccc(C(=O)N(C)C)cc4Cl)c3)nc2c1 [Example 59, 2-Chloro-5′-(5,7-dimethoxy-4-oxo-3,4-dihydroquinazolin-2-yl)-2′-methoxy-N,N-dimethyl-[1,1′-biphenyl]-4-carboxamide] | Not Active | Active | Active | > 300 °C | Active | Active
COc1ccc2c(=O)[nH]c(-c3ccc(OCCNC(C)C)c(-c4ccc(S(C)(=O)=O)cc4)n3)nc2c1 [Example 67] | Active | Active | Active | 204 to 205 °C | Not Active | Active
